Laboratory results published in patent US8101761B2, “(E)-N-{3-[1-(8-fluoro-11H-10-OXA-1-AZA-dibenzo [A,D] cyclohepten-5ylidene)-propyl]-phenyl}-methanesulfonamide as glucocorticoid receptor modulator for the treatment of rheumatoid arthritis” (Eli Lilly and Company, priority 2008, dated 2012).
Like-named read-outs stand apart in the source and are kept apart here.

Experiments:
[1] = tested on: carrageenan-induced paw edema in male Sprague-Dawley rats; assay: Carrageenan-induced paw edema (CPE) model; type: in vivo; conditions: rat, oral gavage 2 h before carrageenan, paws taken 3 h after, mean of 5 determinations
Text: Carrageenans are a group of polysaccharides which can induce an acute inflammatory response in animals. Cardinal signs of inflammation including edema, hyperalgesia and erythema are developed in the injection site immediately following injection. The CPE model is a recognized model of inflammation and can be used to evaluate the anti-inflammatory effects of glucocorticoid receptor ligands.
To evaluate the anti-inflammatory effects of Compound (I), the compound is formulated in a vehicle comprising 0.5% carboxymethyl cellulose and 0.25% Tween 80 then administered orally via gavage to male Sprague-Dawley rats (180-200 g). For comparison, prednisolone may be administered orally in the same vehicle. Two hours later, 1% carrageenan in 50 μl of 0.9% pyrogen free saline is injected into the subplantar regions of the right hind paw. Rats are euthanized by CO2 at 3 hours after the carrageenan injection. Paws are removed then weighed using a microbalance. Paws are then dissected by making several cuts on the paw surface and immediately immersing into liquid nitrogen until frozen. Frozen paws are then centrifuged to extract the exudates. Exudate levels of IL-1β, a cytokine generated during the inflammatory response is then measured by ELISA according to manufacturers instructions. Total paw protein is also measured using a protein assay kit and the absolute level of IL-1β is normalized to yield a concentration value of ng IL-1β/mg total protein.

[2] = target: T1, human glucocorticoid receptor (GR) (Homo sapiens, UniProt P04150); assay: Nuclear hormone receptor functional modulation assay (GRE-luciferase reporter, HEK293), GR; type: cell-based; conditions: agonist mode, mean of n=4 or 5
T1 construct: expressed in transfected cells; host or cells: HEK293, transient transfection, CMV promoter plasmid
T1 sequence (P04150 1-777): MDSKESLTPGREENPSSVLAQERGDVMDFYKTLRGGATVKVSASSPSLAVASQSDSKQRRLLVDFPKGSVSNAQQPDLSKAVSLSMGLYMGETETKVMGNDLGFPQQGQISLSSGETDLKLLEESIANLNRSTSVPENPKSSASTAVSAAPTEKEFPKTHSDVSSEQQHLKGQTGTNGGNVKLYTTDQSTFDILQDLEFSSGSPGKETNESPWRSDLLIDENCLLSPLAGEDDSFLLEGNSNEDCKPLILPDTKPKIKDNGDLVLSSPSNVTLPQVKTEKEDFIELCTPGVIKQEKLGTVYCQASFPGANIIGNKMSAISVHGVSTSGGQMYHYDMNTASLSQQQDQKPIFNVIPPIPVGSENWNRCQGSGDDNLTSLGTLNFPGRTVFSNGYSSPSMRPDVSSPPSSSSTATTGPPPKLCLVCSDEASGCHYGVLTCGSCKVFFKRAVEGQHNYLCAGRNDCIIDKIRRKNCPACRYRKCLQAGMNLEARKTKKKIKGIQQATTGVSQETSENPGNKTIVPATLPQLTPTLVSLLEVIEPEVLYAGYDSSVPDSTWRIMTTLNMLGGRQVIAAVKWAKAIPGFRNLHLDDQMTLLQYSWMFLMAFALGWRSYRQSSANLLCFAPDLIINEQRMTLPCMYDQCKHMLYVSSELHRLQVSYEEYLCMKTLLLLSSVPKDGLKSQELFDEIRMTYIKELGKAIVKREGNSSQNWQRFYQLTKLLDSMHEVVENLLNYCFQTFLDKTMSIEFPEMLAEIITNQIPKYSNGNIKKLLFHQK
Text: The solvents, reagents, and ligands employed in the functional assay are readily available from commercial sources, or can be prepared by one of ordinary skill in the art.
Human embryonic kidney HEK293 cells are transfected with steroid hormone receptor and reporter gene plasmids using Fugene™ transfection reagent. Briefly, the reporter plasmid containing two copies of probasin ARE and TK(thymidine kinase) promoter upstream of the luciferase reporter cDNA, is transfected into HEK293 cells with a plasmid constitutively expressing human androgen receptor (AR) using viral CMV(cytomegalovirus) promoter. The reporter plasmid containing two copies of GRE and TK promoter upstream of the luciferase reporter cDNA is transfected with a plasmid constitutively expressing either human glucocorticoid receptor (GR), human mineralocorticoid receptor (MR), or human progesterone receptor (PR) using viral CMV promoter. […] After 24-hours incubation with test compounds, cells are lysed and luciferase activity is determined using standard techniques.
Data are fitted to a four parameter-fit logistic curve fit to determine EC50 values. […] IC50 values may be determined similarly using antagonist mode assay data. Percent inhibitions may also be determined relative to the response in the presence of agonist alone, as described above.

## CC/C(=C1\c2ccc(F)cc2OCc2ncccc21)c1cccc(NS(C)(=O)=O)c1 [Compound (I), (E)-N-{3-[1-(8-Fluoro-11H-10-oxa-1-aza-dibenzo[a,d]cyclohepten-5-ylidene)-propyl]-phenyl}-methanesulfonamide]
[1]; read-out: ED50, inhibition of carrageenan induced paw weight gain
  ED50: ~2.8 mg/kg
[1]; read-out: ED50, reduction of paw exudate levels of IL-1β
  ED50: ~3.2 mg/kg
[2]; relative to 100 nM dexamethasone
  efficacy in activating transcription, GR: about 44%
[2]; read-out: EC50 in activating transcription, GR
  EC50: ~1.8 nM
